In ChEMBL document CHEMBL5247629, “C-6 fluorinated casuarines as highly potent and selective amyloglucosidase inhibitors: Synthesis and structure-activity relationship study” (Eur J Med Chem, 2022):

How the values were obtained:
[1] = Inhibition of Aspergillus niger amyloglucosidase using p-nitrophenyl glycoside as substrate by spectrometric method
[2] = Inhibition of Aspergillus niger amyloglucosidase
Escherichia coli [3] = assay: Inhibition of Escherichia coli beta-glucuronidase at 1000 uM relative to control
[4] = Inhibition of rice alpha-glucosidase; set-up: species or system Oryza sativa
[5] = molecular target: T1, Tissue alpha-L-fucosidase (Bos taurus) (UniProt Q2KIM0); assay: Inhibition of bovine kidney alpha-L-fucosidase at 1000 uM relative to control; type: tissue-based
T1 sequence (whole entry): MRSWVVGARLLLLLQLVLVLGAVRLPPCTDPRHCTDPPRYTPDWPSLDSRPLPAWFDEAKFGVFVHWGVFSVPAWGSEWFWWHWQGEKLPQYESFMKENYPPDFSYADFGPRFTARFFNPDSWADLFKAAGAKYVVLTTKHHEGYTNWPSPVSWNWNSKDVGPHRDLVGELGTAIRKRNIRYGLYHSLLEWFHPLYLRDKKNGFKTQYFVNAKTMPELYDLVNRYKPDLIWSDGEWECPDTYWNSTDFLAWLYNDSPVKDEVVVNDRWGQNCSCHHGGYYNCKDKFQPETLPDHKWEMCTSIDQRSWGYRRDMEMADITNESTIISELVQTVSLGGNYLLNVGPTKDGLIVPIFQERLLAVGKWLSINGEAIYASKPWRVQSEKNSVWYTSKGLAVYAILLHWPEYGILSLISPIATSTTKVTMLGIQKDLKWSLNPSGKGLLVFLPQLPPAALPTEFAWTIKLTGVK

Bos taurus [6] = species on record: Bos taurus; assay: Inhibition of bovine liver beta-glucuronidase at 1000 uM relative to control; type: tissue-based
Bos taurus [7] = species on record: Bos taurus; assay: Inhibition of bovine liver beta-galactosidase at 1000 uM relative to control
[8] = Inhibition of porcine kidney alpha/alpha-trehalase; type: tissue-based, Sus scrofa
Bos taurus [9] = species on record: Bos taurus; assay: Inhibition of bovine liver beta-glucosidase at 1000 uM relative to control; type: tissue-based
[10] = molecular target: Alpha-galactosidase (Coffea arabica) (UniProt Q42656); assay: Inhibition of coffee bean alpha-galactosidase at 1000 uM relative to control
[11] = Inhibition of rat intestinal maltase; type: tissue-based, Intestine
Prunus dulcis [12] = assay: Inhibition of almond beta-glucosidase at 1000 uM relative to control
Helix pomatia [13] = assay: Inhibition of snail beta-mannosidase at 1000 uM relative to control
[14] = molecular target: T2, Alpha-mannosidase (Canavalia ensiformis) (UniProt C0HJB3); assay: Inhibition of jack bean alpha-mannosidase at 1000 uM relative to control
T2 sequence (whole entry): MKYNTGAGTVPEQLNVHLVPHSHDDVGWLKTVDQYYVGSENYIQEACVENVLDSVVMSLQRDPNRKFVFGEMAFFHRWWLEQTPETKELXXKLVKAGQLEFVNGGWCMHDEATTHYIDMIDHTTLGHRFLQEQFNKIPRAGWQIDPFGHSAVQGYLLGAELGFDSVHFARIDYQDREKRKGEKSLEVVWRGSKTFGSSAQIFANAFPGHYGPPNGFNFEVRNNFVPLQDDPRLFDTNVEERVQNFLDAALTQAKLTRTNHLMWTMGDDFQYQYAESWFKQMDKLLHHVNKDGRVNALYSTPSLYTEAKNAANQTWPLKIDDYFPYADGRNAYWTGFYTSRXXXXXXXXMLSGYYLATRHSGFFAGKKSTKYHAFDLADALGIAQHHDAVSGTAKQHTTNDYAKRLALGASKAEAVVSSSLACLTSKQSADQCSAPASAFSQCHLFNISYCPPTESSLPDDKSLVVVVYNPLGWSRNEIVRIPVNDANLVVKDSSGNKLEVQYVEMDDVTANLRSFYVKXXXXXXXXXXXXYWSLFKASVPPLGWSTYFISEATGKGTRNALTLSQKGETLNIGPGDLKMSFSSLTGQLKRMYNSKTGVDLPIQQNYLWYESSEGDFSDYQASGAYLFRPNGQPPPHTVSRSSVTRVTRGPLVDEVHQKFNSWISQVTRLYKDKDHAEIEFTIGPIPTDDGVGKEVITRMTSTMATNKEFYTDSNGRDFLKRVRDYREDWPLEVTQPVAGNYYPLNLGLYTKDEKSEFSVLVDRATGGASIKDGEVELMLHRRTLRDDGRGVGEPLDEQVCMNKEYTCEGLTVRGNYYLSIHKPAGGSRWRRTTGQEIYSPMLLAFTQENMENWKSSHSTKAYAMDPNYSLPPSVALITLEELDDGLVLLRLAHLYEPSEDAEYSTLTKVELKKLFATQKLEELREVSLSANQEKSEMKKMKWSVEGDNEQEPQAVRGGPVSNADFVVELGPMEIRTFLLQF

Penicillium decumbens [15] = assay: Inhibition of Penicillium decumbens alpha-L-rhamnosidase at 1000 uM relative to control
Alpha-glucosidase = Alpha-glucosidase (Saccharomyces cerevisiae S288c, UniProt P53341+P38158+P07265); assay: Inhibition of yeast alpha-glucosidase; type: protein assay
[16] = molecular target: Alpha-glucosidase (Saccharomyces cerevisiae S288c) (UniProt P53341+P38158+P07265); assay: Inhibition of yeast alpha-glucosidase using p-nitrophenyl glycoside as substrate at 1000 uM by spectrometric method relative to control; type: protein assay
Bos taurus [17] = species on record: Bos taurus; assay: Inhibition of bovine liver beta-glucuronidase using p-nitrophenyl glycoside as substrate at 1000 uM by spectrometric method relative to control; type: tissue-based
Rattus norvegicus = species on record: Rattus norvegicus; assay: Inhibition of rat intestinal maltase using maltose as substrate at 1000 uM at pH 6.8 by colorimetric method relative to control; type: tissue-based; conditions: Intestine
Prunus dulcis [18] = assay: Inhibition of almond beta-glucosidase using p-nitrophenyl glycoside as substrate at 1000 uM by spectrometric method relative to control
Sus scrofa = species on record: Sus scrofa; assay: Inhibition of porcine kidney alpha/alpha-trehalase using p-nitrophenyl glycoside as substrate at 1000 uM by spectrometric method relative to control; type: tissue-based
[19] = molecular target: T2, Alpha-mannosidase (Canavalia ensiformis); assay: Inhibition of jack bean alpha-mannosidase using p-nitrophenyl glycoside as substrate at 1000 uM by spectrometric method relative to control
Penicillium decumbens [20] = assay: Inhibition of Penicillium decumbens alpha-L-rhamnosidase using p-nitrophenyl glycoside as substrate at 1000 uM by spectrometric method relative to control
Bos taurus [21] = species on record: Bos taurus; assay: Inhibition of bovine liver beta-glucosidase using p-nitrophenyl glycoside as substrate at 1000 uM by spectrometric method relative to control; type: tissue-based
[22] = molecular target: T1, Tissue alpha-L-fucosidase (Bos taurus); assay: Inhibition of bovine kidney alpha-L-fucosidase using p-nitrophenyl glycoside as substrate at 1000 uM by spectrometric method relative to control; type: tissue-based
Bos taurus [23] = species on record: Bos taurus; assay: Inhibition of bovine liver beta-galactosidase using p-nitrophenyl glycoside as substrate at 1000 uM by spectrometric method relative to control; type: tissue-based
Escherichia coli [24] = assay: Inhibition of Escherichia coli beta-glucuronidase using p-nitrophenyl glycoside as substrate at 1000 uM by spectrometric method relative to control
Helix pomatia [25] = assay: Inhibition of snail beta-mannosidase using p-nitrophenyl glycoside as substrate at 1000 uM by spectrometric method relative to control
Oryza sativa = assay: Inhibition of rice alpha-glucosidase using p-nitrophenyl glycoside as substrate at 1000 uM by spectrometric method relative to control
[26] = molecular target: Alpha-galactosidase (Coffea arabica) (UniProt Q42656); assay: Inhibition of coffee bean alpha-galactosidase using p-nitrophenyl glycoside as substrate at 1000 uM by spectrometric method relative to control
[27] = Inhibition of rice alpha-glucosidase using p-nitrophenyl glycoside as substrate by spectrometric method; set-up: species or system Oryza sativa
[28] = Inhibition of rat intestinal maltase using maltose as substrate at pH 6.8 by colorimetric method; type: tissue-based, Intestine

Sequence of Alpha-galactosidase (Coffea arabica) (Q42656 16-378 limits assumed): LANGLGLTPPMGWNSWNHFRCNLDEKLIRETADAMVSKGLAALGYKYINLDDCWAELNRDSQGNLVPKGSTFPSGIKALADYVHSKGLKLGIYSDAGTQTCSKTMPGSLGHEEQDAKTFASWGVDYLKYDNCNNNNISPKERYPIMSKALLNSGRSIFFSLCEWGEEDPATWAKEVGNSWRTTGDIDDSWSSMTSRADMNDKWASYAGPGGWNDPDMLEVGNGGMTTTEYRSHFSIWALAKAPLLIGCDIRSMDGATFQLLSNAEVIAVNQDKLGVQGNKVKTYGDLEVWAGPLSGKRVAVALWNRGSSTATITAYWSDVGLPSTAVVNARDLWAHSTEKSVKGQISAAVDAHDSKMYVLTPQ

Row | SMILES | pIC50 [1] | IC50 [2] [µM] | inhibition [16] [%] | inhibition (Bos taurus [17]) [%] | inhibition (Prunus dulcis [18]) [%] | IC50 [1] [µM] | inhibition (Sus scrofa) [%] | inhibition [19] [%] | inhibition (Penicillium decumbens [20]) [%] | inhibition (Bos taurus [21]) [%] | inhibition [22] [%] | inhibition (Bos taurus [23]) [%] | inhibition (Escherichia coli [24]) [%] | inhibition (Helix pomatia [25]) [%] | inhibition [26] [%] | other results
1 | OC[C@@H]1[C@@H](O)[C@H](O)[C@H]2[C@@H](F)CCN21 | 4.092 | 81 | – | – | – | – | – | – | – | – | – | – | – | – | – | –
2 | OC[C@@H]1[C@@H](O)[C@H](O)[C@H]2[C@H](O)[C@@H](O)CN21 [CASUARINE] | 5.201 | 6.3 | – | – | – | – | – | – | – | – | – | – | – | – | – | inhibition (Escherichia coli [3]): 1.8%; IC50 [4]: 14 µM; inhibition [5]: 0%; inhibition (Bos taurus [6]): 17.3%; inhibition (Bos taurus [7]): 10.2%; IC50 [8]: 157 µM; inhibition (Bos taurus [9]): 7.5%; inhibition [10]: 3.7%; IC50 [11]: 3.1 µM; inhibition (Prunus dulcis [12]): 12%; inhibition (Helix pomatia [13]): 0%; inhibition [14]: 0%; inhibition (Penicillium decumbens [15]): 4.6%; IC50 (Alpha-glucosidase): 71 µM
3 | OC[C@@H]1[C@@H](O)[C@H](O)[C@H]2[C@H](F)[C@H](O)CN21 | 5.347 | 4.5 | – | – | – | – | – | – | – | – | – | – | – | – | – | –
4 | OC[C@@H]1[C@@H](O)[C@H](O)[C@H]2[C@@H](O)[C@H](F)CN21 | 4.959 | – | 0 | 23.1 | 8.5 | 11 | 30.4 | 0 | 0 | 32.3 | 0 | 17.6 | 2.9 | 0.8 | 0 | inhibition (Rattus norvegicus): 41.7%; inhibition (Oryza sativa): 28.4%
5 | OC[C@@H]1[C@@H](O)[C@H](O)[C@H]2C[C@@H](F)CN12 | 3.199 | – | 30.1 | 21.9 | 17.7 | 633 | 42.3 | 2.3 | 4.9 | 24.3 | 0.9 | 29.9 | 1.2 | 4.3 | 6.7 | inhibition (Rattus norvegicus): 30.9%; inhibition (Oryza sativa): 17.7%
6 | OC[C@@H]1[C@@H](O)[C@H](O)[C@H]2[C@H](F)[C@@H](O)CN21 | 5.276 | 5.3 | – | – | – | – | – | – | – | – | – | – | – | – | – | –
7 | OC[C@@H]1[C@@H](O)[C@H](O)[C@H]2CC(F)(F)CN12 | 4.569 | – | 3.6 | 0 | 11.4 | 27 | 3.2 | 0 | 3 | 12.5 | 0 | 22.4 | 0 | 0 | 1.6 | inhibition (Rattus norvegicus): 7.9%; inhibition (Oryza sativa): 15.4%
8 | OC[C@@H]1[C@@H](O)[C@H](O)[C@H]2[C@H](O)[C@@H](F)CN21 | 4.456 | – | 41.9 | 33.2 | 21.5 | 35 | 34.4 | 0 | 14.1 | 18.8 | 14.6 | 36.7 | 7.5 | 6.2 | 5 | IC50 [27]: 771 µM; IC50 [28]: 313 µM
9 | OC[C@@H]1[C@@H](O)[C@H](O)[C@H]2[C@H](O)[C@H](O)CN21 | 5.276 | 5.3 | – | – | – | – | – | – | – | – | – | – | – | – | – | inhibition (Escherichia coli [3]): 3.1%; IC50 [4]: 68 µM; inhibition [5]: 0%; inhibition (Bos taurus [6]): 18.4%; inhibition (Bos taurus [7]): 5.9%; IC50 [8]: 9.7 µM; inhibition (Bos taurus [9]): 1.9%; inhibition [10]: 6%; IC50 [11]: 13 µM; inhibition (Prunus dulcis [12]): 31.9%; inhibition (Helix pomatia [13]): 3%; inhibition [14]: 1.1%; inhibition (Penicillium decumbens [15]): 13.2%; IC50 (Alpha-glucosidase): 46 µM
10 | OC[C@@H]1[C@@H](O)[C@H](O)[C@H]2C[C@H](F)CN12 | 5.658 | – | 0 | 14.8 | 36.8 | 2.2 | 23 | 0 | 9.9 | 25.5 | 0 | 25.8 | 0 | 0 | 2.9 | inhibition (Rattus norvegicus): 7.9%; inhibition (Oryza sativa): 10%
11 | OC[C@@H]1[C@@H](O)[C@H](O)[C@@H]2N1C[C@@H](O)C2(F)F | 4.222 | 60 | – | – | – | – | – | – | – | – | – | – | – | – | – | –
12 | OC[C@@H]1[C@@H](O)[C@H](O)[C@@H]2N1C[C@H](O)C2(F)F | 4.409 | 39 | – | – | – | – | – | – | – | – | – | – | – | – | – | –
13 | OC[C@@H]1[C@@H](O)[C@H](O)[C@H]2[C@@H](F)[C@@H](O)CN21 | 3.818 | 152 | – | – | – | – | – | – | – | – | – | – | – | – | – | –
14 | OC[C@@H]1[C@@H](O)[C@H](O)[C@H]2[C@@H](O)C(F)(F)CN21 | 3.609 | – | 5.6 | 10.1 | 3.5 | 246 | 9.2 | 0.8 | 0 | 12 | 6.4 | 6.2 | 2.6 | 0 | 0.2 | inhibition (Rattus norvegicus): 28.4%; inhibition (Oryza sativa): 7.7%
15 | OC[C@@H]1[C@@H](O)[C@H](O)[C@H]2[C@@H](O)[C@@H](F)CN21 | 3.606 | – | 18 | 13.3 | 13.6 | 248 | 30.4 | 3.3 | 1.7 | 35.9 | 14 | 38 | 7 | 0 | 0 | IC50 [27]: 350 µM; IC50 [28]: 927 µM
16 | OC[C@@H]1[C@@H](O)[C@H](O)[C@H]2[C@@H](F)[C@H](O)CN21 | 3.777 | 167 | – | – | – | – | – | – | – | – | – | – | – | – | – | –
17 | OC[C@@H]1[C@@H](O)[C@H](O)[C@H]2[C@@H](O)[C@@H](O)CN21 | 4.194 | 64 | – | – | – | – | – | – | – | – | – | – | – | – | – | –
